The values below come from patent publication US20250129070A1, “BIFUNCTIONAL ANDROGEN RECEPTOR COMPOUNDS” (priority 2023, published 2025).

Where only a bound is given, the exact number is not on record here.

As a reminder, the EC50 is the concentration that produces a half-maximal response. Lower therefore signals a more potent agent. By IC50 is commonly meant the midpoint of a concentration-inhibition curve. Lower therefore signals inhibition by little substance.

In one experiment the test system is AR / CBP ternary complex. Nature of the experiment: Ternary complex formation assay (sandwich ELISA, AR capture / CBP detection) in VCaP cell lysates. The class given is cell-based. The following applies: 1.5 hours treatment, sandwich ELISA (AR capture, CBP or p300 detection). In a few lines:
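Anti-AR (AR 441)-coated plates capture AR from lysates of VCaP cells grown ≥3 days at 50K/well in 5% charcoal-stripped FBS, dosed with bifunctional for 1.5 h and lysed 30 min at 4 °C. Co-captured CBP/p300 is probed with rabbit mAb and HRP anti-rabbit, then QuantaRed fluorescence (570/585) is read at 0, 5 and 15 min.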
A general note: In an ELISA, binding on a coated surface is turned into a signal by an enzyme label.

Another experiment deals with VCaP cells. Put plainly: VCaP growth inhibition assay. The following applies: 30 pM R1881, 9 days, CTG. The class given is cell-based. In a few lines:
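Growth read by CTG luminescence after 9-day exposure to compound (final 100 nM–10 fM, 1:5 steps) plus 30 pM R1881, in phenol red-free DMEM with 5% CSS. Cells pre-incubated 72 h before dosing; IC50 by nonlinear 4-parameter regression.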

`CC(=O)N1CCc2c(c(N3CCCc4cc(-c5cnn(C)c5)c(C)cc43)nn2C2CCN(C(=O)C3CCN(c4ncc(C(=O)NC5C(C)(C)C(Oc6ccc(C#N)c(Cl)c6)C5(C)C)cn4)CC3)CC2)C1` (stereo not drawn) [Compound 120, 2-[4-[4-[5-acetyl-3-[7-methyl-6-(1-methylpyrazol-4-yl)-3,4-dihydro-2H-quinolin-1-yl]-6,7-dihydro-4H-pyrazolo[4,3-c]pyridin-1-yl]piperidine-1-carbonyl]-1-piperidyl]-N-[3-(3-chloro-4-cyano-phenoxy)-2,2,4,4-tetramethyl-cyclobutyl]pyrimidine-5-carboxamide] showed an EC50 in the experiment with AR / CBP ternary complex of less than 1 nM. For the same compound, the IC50 in the experiment on VCaP cells was no more than 0.1 nM.

`CC(=O)N1CCc2c(c(N3CCCc4cc(-c5cnn(C)c5)c(Cl)cc43)nn2C2CCN(CC3CCN(c4ncc(C(=O)NC5C(C)(C)C(Oc6ccc(C#N)c(Cl)c6)C5(C)C)cn4)CC3)CC2)C1` (stereo not drawn) [Compound 25, 2-[4-[[4-[5-acetyl-3-[7-chloro-6-(1-methylpyrazol-4-yl)-3,4-dihydro-2H-quinolin-1-yl]-6,7-dihydro-4H-pyrazolo[4,3-c]pyridin-1-yl]-1-piperidyl]methyl]-1-piperidyl]-N-[3-(3-chloro-4-cyano-phenoxy)-2,2,4,4-tetramethyl-cyclobutyl]pyrimidine-5-carboxamide] gave an EC50 in the experiment on AR / CBP ternary complex of 1 to 10 nM. Also, the IC50 in the experiment on VCaP cells fell in the range of 0.1 to 1 nM.

For `COC1CN(c2ncc(C(=O)NC3C(C)(C)C(Oc4ccc(C#N)c(Cl)c4)C3(C)C)cn2)CCC1CN1CCC(n2nc(N3CCCc4cc(-c5cnn(C)c5)c(C(F)F)cc43)c3c2CCN(C(C)=O)C3)CC1` (stereo not drawn) [Compound 331, 2-[4-[[4-[5-acetyl-3-[7-(difluoromethyl)-6-(1-methylpyrazol-4-yl)-3,4-dihydro-2H-quinolin-1-yl]-6,7-dihydro-4H-pyrazolo[4,3-c]pyridin-1-yl]-1-piperidyl]methyl]-3-methoxy-1-piperidyl]-N-[3-(3-chloro-4-cyano-phenoxy)-2,2,4,4-tetramethyl-cyclobutyl]pyrimidine-5-carboxamide], the EC50 with AR / CBP ternary complex is less than 1 nM. In the experiment on VCaP cells, this compound gave an IC50 of 0.1 to 1 nM.

`COc1cc(OC2C(C)(C)C(NC(=O)c3ccc(N4CC(N5CCC(n6nc(N7CCCc8cc(-c9cnn(C)c9)c(C(F)F)cc87)c7c6CCN(C(C)=O)C7)CC5)C4)cc3)C2(C)C)ccc1C#N` (stereo not drawn) [Compound 310, 4-[3-[4-[5-acetyl-3-[7-(difluoromethyl)-6-(1-methylpyrazol-4-yl)-3,4-dihydro-2H-quinolin-1-yl]-6,7-dihydro-4H-pyrazolo[4,3-c]pyridin-1-yl]-1-piperidyl]azetidin-1-yl]-N-[3-(4-cyano-3-methoxy-phenoxy)-2,2,4,4-tetramethyl-cyclobutyl]benzamide] had an EC50 in the experiment with AR / CBP ternary complex of less than 1 nM. Also, the IC50 in the experiment with VCaP cells was no more than 0.1 nM.

Compound `COc1cc(OC2C(C)(C)C(NC(=O)c3ccc(N4CC(OC5CCC(n6nc(N7CCCc8cc(-c9cnn(C)c9)c(C(F)F)cc87)c7c6CCN(C(C)=O)C7)CC5)C4)cc3)C2(C)C)ccc1C#N` (stereo not drawn) [Compound 343, 4-[3-[4-[5-acetyl-3-[7-(difluoromethyl)-6-(1-methylpyrazol-4-yl)-3,4-dihydro-2H-quinolin-1-yl]-6,7-dihydro-4H-pyrazolo[4,3-c]pyridin-1-yl]cyclohexoxy]azetidin-1-yl]-N-[3-(4-cyano-3-methoxy-phenoxy)-2,2,4,4-tetramethyl-cyclobutyl]benzamide] came in with a half-maximal effective concentration (EC50) with AR / CBP ternary complex of less than 1 nM. In the experiment on VCaP cells, this compound yielded an IC50 of 0.1 to 1 nM.

Turning to `CC(=O)N1CCc2c(c(N3CCCc4cc(-c5cnn(C)c5)c(C(F)F)cc43)nn2C2CCN([C@H]3CCN(c4ncc(C(=O)NC5C(C)(C)C(Oc6ccc(C#N)c(Cl)c6)C5(C)C)cn4)C3)CC2)C1` (stereo partly drawn) [Compound 334, 2-[(3S)-3-[4-[5-acetyl-3-[7-(difluoromethyl)-6-(1-methylpyrazol-4-yl)-3,4-dihydro-2H-quinolin-1-yl]-6,7-dihydro-4H-pyrazolo[4,3-c]pyridin-1-yl]-1-piperidyl]pyrrolidin-1-yl]-N-[3-(3-chloro-4-cyano-phenoxy)-2,2,4,4-tetramethyl-cyclobutyl]pyrimidine-5-carboxamide], the EC50 with AR / CBP ternary complex was less than 1 nM. In the experiment on VCaP cells, this compound showed an IC50 of 0.1 to 1 nM.

In the experiment with AR / CBP ternary complex, `C[C@@H]1CC(=O)Nc2cccc(-c3ccc4c(c3)c(-c3cnn(C)c3)nn4CCCOc3ncc(C(=O)NC4C(C)(C)C(Oc5ccc(C#N)c(Cl)c5)C4(C)C)cn3)c2N1` (stereo partly drawn) [Compound 49, N-[3-(3-chloro-4-cyano-phenoxy)-2,2,4,4-tetramethyl-cyclobutyl]-2-[3-[5-[(4R)-4-methyl-2-oxo-1,3,4,5-tetrahydro-1,5-benzodiazepin-6-yl]-3-(1-methylpyrazol-4-yl)indazol-1-yl]propoxy]pyrimidine-5-carboxamide] yielded an EC50 greater than 100 nM. The IC50 with VCaP cells was in the range of 1 to 100 nM.

As to `C[C@@H]1CC(=O)Nc2cccc(-c3ccc4c(c3)c(-c3cnn(C)c3)nn4CCN3CCN(c4ncc(C(=O)NC5C(C)(C)C(Oc6ccc(C#N)c(Cl)c6)C5(C)C)cn4)CC3)c2N1` (stereo partly drawn) [Compound 56, N-[3-(3-chloro-4-cyano-phenoxy)-2,2,4,4-tetramethyl-cyclobutyl]-2-[4-[2-[5-[(4R)-4-methyl-2-oxo-1,3,4,5-tetrahydro-1,5-benzodiazepin-6-yl]-3-(1-methylpyrazol-4-yl)indazol-1-yl]ethyl]piperazin-1-yl]pyrimidine-5-carboxamide], in the experiment with AR / CBP ternary complex, the EC50 is less than 1 nM. Moreover, in the experiment with VCaP cells, the IC50 is 0.1 to 1 nM.

`CC(=O)N1CCc2c(c(N3CCCc4cc(-c5cnn(C)c5)c(C)cc43)nn2C2CCN(C3CCC4(CC3)CN(c3ncc(C(=O)NC5C(C)(C)C(Oc6ccc(C#N)c(C)c6C)C5(C)C)cn3)C4)CC2)C1` (stereo not drawn) [Compound 472, 2-[7-[4-[5-acetyl-3-[7-methyl-6-(1-methylpyrazol-4-yl)-3,4-dihydro-2H-quinolin-1-yl]-6,7-dihydro-4H-pyrazolo[4,3-c]pyridin-1-yl]-1-piperidyl]-2-azaspiro[3.5]nonan-2-yl]-N-[3-(4-cyano-2,3-dimethyl-phenoxy)-2,2,4,4-tetramethyl-cyclobutyl]pyrimidine-5-carboxamide] returned an EC50 in the experiment on AR / CBP ternary complex of less than 1 nM. Also, the IC50 in the experiment on VCaP cells lay in the range of 0.1 to 1 nM.

With `CC(=O)N1CCc2c(c(N3CCCc4cc(-c5cnn(C)c5)c(C(F)F)cc43)nn2CCCN(C)c2ncc(C(=O)NC3C(C)(C)C(Oc4ccc(C#N)c(Cl)c4)C3(C)C)cn2)C1` (stereo not drawn) [Compound 44, 2-[3-[5-acetyl-3-[7-(difluoromethyl)-6-(1-methylpyrazol-4-yl)-3,4-dihydro-2H-quinolin-1-yl]-6,7-dihydro-4H-pyrazolo[4,3-c]pyridin-1-yl]propyl-methyl-amino]-N-[3-(3-chloro-4-cyano-phenoxy)-2,2,4,4-tetramethyl-cyclobutyl]pyrimidine-5-carboxamide], in the experiment with AR / CBP ternary complex, the EC50 was greater than 100 nM. Besides, the IC50 in the experiment with VCaP cells was greater than 100 nM.

`CC(=O)N1CCc2c(c(N3CCCc4cc(-c5cnn(C)c5)c(C(F)F)cc43)nn2C2CCN(C[C@H]3CCN(c4ncc(C(=O)NC5C(C)(C)C(Oc6ccc(C#N)c(Cl)c6)C5(C)C)cn4)C[C@H]3C)CC2)C1` (stereo partly drawn) [Compound 364]: the EC50 with AR / CBP ternary complex is less than 1 nM. This compound also registered an IC50 in the experiment on VCaP cells of no more than 0.1 nM.

For the compound `CC(=O)N1CCc2c(c(-c3cccc4cc(-c5ccc(CCC6CCN(c7ncc(C(=O)NC8C(C)(C)C(Oc9ccc(C#N)c(Cl)c9)C8(C)C)cn7)CC6)nc5)ncc34)nn2C)C1` (stereo not drawn) [Compound 231, 2-[4-[2-[5-[8-(5-acetyl-1-methyl-6,7-dihydro-4H-pyrazolo[4,3-c]pyridin-3-yl)-3-isoquinolyl]-2-pyridyl]ethyl]-1-piperidyl]-N-[3-(3-chloro-4-cyano-phenoxy)-2,2,4,4-tetramethyl-cyclobutyl]pyrimidine-5-carboxamide], the EC50 in the experiment with AR / CBP ternary complex was in the range of 10 to 100 nM. For the same compound, in the experiment with VCaP cells, the IC50 was 0.1 to 1 nM.

In turn, `CC(=O)N1CCc2c(c(N3CCCc4cc(-c5cnn(C)c5)c(C(F)F)cc43)nn2C2CCN(CC3C(C)CN(c4ncc(C(=O)NC5C(C)(C)C(Oc6ccc(C#N)c(C)c6)C5(C)C)cn4)CC3C)CC2)C1` (stereo not drawn) [Compound 462, 2-[4-[[4-[5-acetyl-3-[7-(difluoromethyl)-6-(1-methylpyrazol-4-yl)-3,4-dihydro-2H-quinolin-1-yl]-6,7-dihydro-4H-pyrazolo[4,3-c]pyridin-1-yl]-1-piperidyl]methyl]-3,5-dimethyl-1-piperidyl]-N-[3-(4-cyano-3-methyl-phenoxy)-2,2,4,4-tetramethyl-cyclobutyl]pyrimidine-5-carboxamide] registered an EC50 in the experiment with AR / CBP ternary complex of less than 1 nM. The compound also displayed an IC50 with VCaP cells of no more than 0.1 nM.

In the experiment with AR / CBP ternary complex, `CC(=O)N1CCc2c(c(N3CCCc4cc(-c5cnn(C)c5)c(C(F)F)cc43)nn2C2CCC(OC3CCN(c4ncc(C(=O)NC5C(C)(C)C(Oc6ccc(C#N)c(Cl)c6)C5(C)C)cn4)CC3)CC2)C1` (stereo not drawn) [Compound 339, 2-[4-[4-[5-acetyl-3-[7-(difluoromethyl)-6-(1-methylpyrazol-4-yl)-3,4-dihydro-2H-quinolin-1-yl]-6,7-dihydro-4H-pyrazolo[4,3-c]pyridin-1-yl]cyclohexoxy]-1-piperidyl]-N-[3-(3-chloro-4-cyano-phenoxy)-2,2,4,4-tetramethyl-cyclobutyl]pyrimidine-5-carboxamide] came in with an EC50 of less than 1 nM. The same compound displayed an IC50 with VCaP cells of no more than 0.1 nM.

For `COc1cc(OC2C(C)(C)C(NC(=O)c3ccc(N4CCC(CCc5ccc(-c6cc7cccc(-c8nn(C9CCOCC9)c9c8CN(C(C)=O)CC9)c7cn6)cc5)CC4)cc3)C2(C)C)ccc1C#N` (stereo not drawn) [Compound 254, 4-[4-[2-[4-[8-(5-acetyl-1-tetrahydropyran-4-yl-6,7-dihydro-4H-pyrazolo[4,3-c]pyridin-3-yl)-3-isoquinolyl]phenyl]ethyl]-1-piperidyl]-N-[3-(4-cyano-3-methoxy-phenoxy)-2,2,4,4-tetramethyl-cyclobutyl]benzamide], the 50% effective concentration (EC50) with AR / CBP ternary complex is less than 1 nM. For the same compound, the IC50 with VCaP cells lay within 0.1 to 1 nM.
